Laboratory results from article PMC9504583, “Stability Study, Quantification Method and Pharmacokinetics Investigation of a Coumarin–Monoterpene Conjugate Possessing Antiviral Properties against Respiratory Syncytial Virus” (Pharmaceuticals, 2022).
Like-named read-outs stand apart in the source and are kept apart here.

How the values were obtained:
RSV serotype A = system: RSV serotype A; parameters: method as in PMID 34946573; settings: cited from earlier work
[1] = pharmacokinetics study of K-142 after oral administration to mice; format: in vivo, CD1 mice; settings: 20 mg/kg
Experimental: The method has been applied to a pharmacokinetic study of the agent K-142 in mice (n = 8). The substance was administered to the animals orally at a dose of 20 mg/kg. After drug administration, blood samples were taken from the tail vein and treated with the precipitating solution, and the samples were analyzed.
The maximum values of concentrations observed for animals vary in the range from 15 to 90 ng/mL, and the average value is about 46 ng/mL. Thereafter, the content of the substance in the blood gradually decreases, and almost complete excretion is achieved in about 2 h. As the average concentration of K-142 in mice blood was c.a. 3.1 ng/mL, which is below LLOQ, this time point was not included in calculation of pharmacokinetics parameters and is shown in Figure 5 just for information. Due to the same reason, the data on the concentrations of the agent K-142 in animal #8 were also not taken into account for the calculation. The averaged values of pharmacokinetic parameters were calculated for a period of time from 0 to 60 min and are given in Table 1.
Experiments were performed on adult CD1 mice (n = 8) weighing 30–40 g. Animals were obtained from the animal facility of the Institute of Cytology and Genetics SB RAS and kept under standard conditions with free access to food and water. All experiments were performed in accordance with the “European Convention for the Protection of Vertebrate Animals Used for Experimental and other Scientific Purposes”, 1986.
Pharmacokinetics of the agent K-142 was studied at a dose of 20 mg/kg after its oral administration. To prepare the dosage form, a weight of the substance was mixed with c.a. 20 µL of Tween-80 followed by the dilution of the sample with physiological saline to a volume of 0.2 mL per 10 g of mouse bodyweight. Blood aliquots (10 µL) were taken in duplicate from the animal tail vein 10, 20, 30, 45 min, 1, 1.5, 2, 2.5 3, 4, 5 and 6 h after substance administration. The samples were mixed with the precipitation solution and processed according to the protocol and analyzed. Pharmacokinetic parameters were calculated using PKSolver and are presented as mean ± standard error of mean (SEM).

[2] = stability study in whole mice blood in vitro; format: in vitro ADME; settings: spike 1000 ng/mL, aliquots 5-240 min, peak area
Experimental: To study the stability of K-142 in whole blood of mice, a spike containing the substance at the concentration of 1000 ng/mL was prepared. After preparation, the spike was placed on a shaker and shaken throughout the experiment. Aliquots of the spike with a volume of 50 μL were taken after 5, 10, 15, 30, 60, 120, 180 and 240 min, after which the sample was prepared and analyzed, and K-142 peak area in obtained chromatograms was measured.
It can be seen from the chart (Figure S1) showing the K-142 peak area in the chromatogram that no decrease in its concentration happens for at least 4 h.

RSV serotype B = system: RSV serotype B; parameters: method as in PMID 34946573; settings: cited from earlier work
[3] = parameters: method as in PMID 27420975; settings: rats, cited from earlier work
[4] = parameters: method as in PMID 31847686; settings: ICR mice, oral, cited from earlier work
[5] = CD1, mouse, whole blood, mean ± SEM, calculated 0-60 min, animal #8 excluded

For `CC1(C)C2CC=C(COc3ccc4c5c(c(=O)oc4c3)CCCC5)C1C2` (centres unmarked) [K-142], the IC50 (RSV serotype A; RSV serotype A) is given as 5 µM, the “selectivity index (SI)” value (RSV serotype A; RSV, serotype not specified for SI) is given as 77 and the CL ([1]; mean ± SEM, calculated 0-60 min, animal #8 excluded) is given as “(1.3 ± 0.2) × 10^−2 (mg/kg)/(ng/mL)/min”. The “time at which maximum concentration is reached” value ([1]; whole blood) was 10 min, the “time to almost complete excretion” value ([1]; whole blood) was “about 2 h” and the concentration at 2 h ([1]; CD1, mouse, whole blood, below LLOQ (5 ng/mL), not used for PK calculation, read-out: average concentration in mice blood at about 2 h) was about 0.0031 µg/mL. For the same compound, the AUC(0-inf) [1, 5] was 0.0262 µg·h/mL, the Cmax [1, 5] was 0.0634 ± 0.0191 µg/mL and the half-life [1, 5] was 27.7 ± 5.4 min. The MRT inf ([1]; CD1, mouse, whole blood, mean ± SEM, calculated 0-60 min, animal #8 excluded, read-out: MRT0–∞ (converted)) was 40.5 min, the “time with no decrease in concentration (stability)” value [2] was “at least 4 h” and the IC50 (RSV serotype B) was 5 µM.

In the case of `CC(C)=CCC/C(C)=C/COc1ccc2ccc(=O)oc2c1` [auraptene], the Tmax ([3]; oral, 100 mg/kg, plasma) is listed as 108.0 ± 25.3 min, the “maximum concentration in blood plasma” value ([3]; oral, 100 mg/kg, plasma) is listed as 1719 ± 384.3 ng/mL and the bioavailability [3] is listed as 8.5%.

In the case of `CC(C)=CCc1c(O)ccc2ccc(=O)oc12` [osthenol], the Cmax ([4]; 5 mg/kg) is given as 0.0661 ± 0.0032 µg/mL, the Tmax ([4]; 5 mg/kg) is given as 36.3 ± 13.8 min and the Cmax ([4]; 20 mg/kg) is given as 0.056 ± 0.0291 µg/mL. For the same compound, the Tmax ([4]; 20 mg/kg) was 6.3 ± 1.3 min and the “bioavailability (in words)” value ([4]; 5 and 20 mg/kg) was “very low bioavailability”.
